ChEMBL document CHEMBL2010728, “Bicyclic benzofuran and indole-based salicylic acids as protein tyrosine phosphatase inhibitors” (Bioorg Med Chem, 2012)

Columns and labels:
[1] = target: Tyrosine-protein phosphatase YopH (Yersinia pseudotuberculosis serotype I (strain IP32953), UniProt P08538); assay: Inhibition of Yersinia pseudotuberculosis YopH
[2] = target: T1, Tyrosine-protein phosphatase non-receptor type 1 (Homo sapiens, UniProt P18031); assay: Inhibition of PTP1B expressed in Escherichia coli BL21 (DE3) cells using p-nitrophenyl phosphate as substrate after 2 to 3 mins by spectrophotometric analysis
T1 sequence (P18031 whole entry): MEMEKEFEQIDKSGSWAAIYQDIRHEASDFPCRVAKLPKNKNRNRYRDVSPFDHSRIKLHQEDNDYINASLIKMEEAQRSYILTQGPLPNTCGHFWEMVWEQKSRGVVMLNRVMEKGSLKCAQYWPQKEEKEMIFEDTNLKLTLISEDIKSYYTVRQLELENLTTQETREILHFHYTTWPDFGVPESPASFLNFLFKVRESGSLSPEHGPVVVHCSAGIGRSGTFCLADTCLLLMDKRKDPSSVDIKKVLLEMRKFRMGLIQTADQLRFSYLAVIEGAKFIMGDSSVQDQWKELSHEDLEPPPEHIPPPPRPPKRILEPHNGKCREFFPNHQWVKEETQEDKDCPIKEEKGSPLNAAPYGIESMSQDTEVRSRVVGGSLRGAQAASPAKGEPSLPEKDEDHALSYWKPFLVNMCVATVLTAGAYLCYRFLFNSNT

[3] = target: T2, Tyrosine-protein phosphatase non-receptor type 1 (Homo sapiens) (UniProt P18031); assay: Ratio of Ki for salicylic acid to compound Ki for PTP1B
T2 sequence (whole entry): T1 sequence (P18031 whole entry)

Homo sapiens = organism: Homo sapiens; assay: Selectivity ratio of Ki for human recombinant TC-PTP to Ki for PTP1B
[4] = Selectivity ratio of Ki for PTP to Ki for PTP1B

Sequence of Tyrosine-protein phosphatase YopH (P08538 whole entry): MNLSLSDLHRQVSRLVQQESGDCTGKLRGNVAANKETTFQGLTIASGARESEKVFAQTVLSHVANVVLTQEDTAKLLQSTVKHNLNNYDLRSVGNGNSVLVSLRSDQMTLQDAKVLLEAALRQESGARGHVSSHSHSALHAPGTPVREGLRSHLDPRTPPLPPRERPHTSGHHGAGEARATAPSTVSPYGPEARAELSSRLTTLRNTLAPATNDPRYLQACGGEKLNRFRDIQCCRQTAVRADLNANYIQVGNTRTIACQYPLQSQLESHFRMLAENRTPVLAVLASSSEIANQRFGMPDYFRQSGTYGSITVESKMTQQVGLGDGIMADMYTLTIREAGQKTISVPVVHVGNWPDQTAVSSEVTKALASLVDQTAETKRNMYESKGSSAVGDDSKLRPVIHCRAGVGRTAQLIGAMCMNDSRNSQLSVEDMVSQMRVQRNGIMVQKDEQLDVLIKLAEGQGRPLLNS

SMILES | IC50 [1] [µM] | Ki [2] [µM] | other results
O=C(O)c1cc2cc(O)ccc2cc1O | 60 |  | 
O=C(O)c1cc2cccc(O)c2cc1O | 18 |  | 
O=C(O)c1cc(NCn2c(=S)[nH]c3ccccc32)ccc1O |  | 61 | 
O=C(O)c1cc(NCn2c(S)nc3ccccc32)ccc1O |  |  | Ratio Ki [3]: 320
N[C@@H](Cc1ccc(C(F)(F)P(=O)(O)O)cc1)C(=O)O [PHOSPHONODIFLUOROMETHYL PHENYLALANINE] |  | 0.0024 | Ratio (Homo sapiens): 10; Ratio Ki [4]: 1000
O=C(O)c1ccccc1O [SALICYLIC ACID] |  | 19400 | Ki [1]: 1000 µM
